Results published in patent US20030162762A1, “Novel cephalosporin compounds and process for preparing the same” (priority 2000, published 2003).
≈ marks a conversion by molar mass, not a printed value.

Legend:
Assay in all cases: Minimum Inhibitory Concentration (MIC), agar dilution, standard strains
E. faecalis L239 = type: cell-based; settings: Table 1, Mueller-Hinton agar, 37° C., 20 hours; for MIC: Enterococcus faecalis, L239, read-out: Minimum Inhibitory Concentration, E. faecalis L239
Protocol: (§1) The effectiveness of the compound according to the present invention was determined by obtaining Minimum Inhibitory Concentration (MIC) of the compounds prepared by the above examples (Compounds I-1 to I-41) and vancomycin, which is the known compound having a potent activity against gram-positive strains, as the control drug against the standard strains. Specifically, Minimum Inhibitory Concentration was obtained by diluting the test compound according to a double dilution method, dispersing them in Mueller-Hinton agar medium, inoculating each of the test strain having 10^7 cfu (colony forming unit) per ml in an amount of 2 μl to the medium and then incubating them at 37° C. for 20 hours. From the result of Minimum Inhibitory Concentration test, it can be seen that the compound according to the present invention has a good activity against major pathogenic microorganisms, which cause hospital infection, including MRSA strains.

S. epidermidis R005 = type: cell-based; settings: Table 1, Mueller-Hinton agar, 37° C., 20 hours; for MIC: Staphylococcus epidermidis, R005, read-out: Minimum Inhibitory Concentration, S. epidermidis R005
Protocol: as §1

[1] = system: Staphylococcus aureus giorgio; type: cell-based; settings: Table 1, Mueller-Hinton agar, 37° C., 20 hours; for MIC: Staphylococcus aureus, read-out: Minimum Inhibitory Concentration, Staphylococcus aureus giorgio
Protocol: as §1

S. aureus 241 = type: cell-based, Staphylococcus aureus; settings: Table 1, Mueller-Hinton agar, 37° C., 20 hours; for MIC: Staphylococcus aureus, 241, read-out: Minimum Inhibitory Concentration, S. aureus 241
Protocol: as §1

S. aureus 77 = type: cell-based, Staphylococcus aureus; settings: Table 1, Mueller-Hinton agar, 37° C., 20 hours; for MIC: Staphylococcus aureus, 77, read-out: Minimum Inhibitory Concentration, S. aureus 77
Protocol: as §1

Row | Molecule | Minimum Inhibitory Concentration, E. faecalis L239 (E. faecalis L239) [µg/mL] | Minimum Inhibitory Concentration, S. epidermidis R005 (S. epidermidis R005) [µg/mL] | Minimum Inhibitory Concentration, Staphylococcus aureus giorgio [1] [µg/mL] | Minimum Inhibitory Concentration, S. aureus 241 (S. aureus 241) [µg/mL] | Minimum Inhibitory Concentration, S. aureus 77 (S. aureus 77) [µg/mL] | MIC (E. faecalis L239) [µg/mL] | MIC (S. epidermidis R005) [µg/mL] | MIC [1] [µg/mL] | MIC (S. aureus 241) [µg/mL] | MIC (S. aureus 77) [µg/mL]
1 | 4,6-diamino-1-{(E)-3-[(6R,7R)-2-carboxy-7-({2-[(2,5-dichlorophenyl)sulfanyl]acetyl}amino)-8-oxo-5-thia-1-azabicyclo[4.2.0]oct-2-en-3-yl]-2-propenyl}-5-methylpyrimidin-1-ium [Compound I-40] | 2 | 0.25 | 0.016 | 8 | 1 | – | – | – | – | –
2 | CSc1nc(C)cc(SC/C=C/C2=C(C(=O)O)N3C(=O)[C@@H](NC(=O)CSc4cc(Cl)ccc4Cl)[C@H]3SC2)n1 [Compound I-28, (6R,7R)-7-({2-[(2,5-dichlorophenyl)sulfanyl]acetyl}amino)-3-((E)-3-{[6-methyl-2-(methylsulfanyl)-4-pyrimidinyl]sulfanyl}-1propenyl)-8-oxo-5-thia-1-azabicyclo [4.2.0]oct-2-ene-2-carboxylic acid] | – | – | – | – | – | 0.5 (≈ 0.794 µM) | 0.25 (≈ 0.397 µM) | 0.016 (≈ 0.0254 µM) | 32 (≈ 50.8 µM) | 0.25 (≈ 0.397 µM)
3 | Nc1nc2cc(N)[n+](C/C=C/C3=C(C(=O)O)N4C(=O)[C@@H](NC(=O)CSc5cc(Cl)ccc5Cl)[C@H]4SC3)cn2n1 [Compound I-32] | 1 | 0.25 | 0.016 | 4 | 0.5 | – | – | – | – | –
4 | CNCc1c(N)nc(SC/C=C/C2=C(C(=O)O)N3C(=O)[C@@H](NC(=O)CSc4cc(Cl)ccc4Cl)[C@H]3SC2)[n+](C)c1N [Compound I-23, (6R,7R)-4,6-diamino-2-({(E)-3-[2-carboxy-7-({2-[(2,5-dichlorophenyl)sulfanyl]acetyl}amino)-8-oxo-5-thia-1-azabicyclo[4.2.0]oct-2-en-3-yl]-2-propenyl}sulfanyl)-1-methyl-5-[(methylamino)methyl]pyrimidin-1-ium] | 1 | 0.25 | 0.016 | 4 | 0.25 | – | – | – | – | –
5 | Nc1cc(N)nc(SC/C=C/C2=C(C(=O)O)N3C(=O)[C@@H](NC(=O)CSc4cc(Cl)ccc4Cl)[C@H]3SC2)n1 [Compound I-24, (6R,7R)-3-{(E)-3-[(4,6-diamino-2-pyrimidinyl)sulfanyl]-1-propenyl}-7-({2-[(2,5-dichlorophenyl)sulfanyl]acetyl}amino)-8-oxo-5-thia-1-azabicyclo[4.2.0]oct-2-ene-2-carboxylic acid] | – | – | – | – | – | 0.5 (≈ 0.834 µM) | 0.13 (≈ 0.217 µM) | 0.016 (≈ 0.0267 µM) | 4 (≈ 6.67 µM) | 0.25 (≈ 0.417 µM)
6 | C[n+]1c(N)cc(SC/C=C/C2=C(C(=O)O)N3C(=O)[C@@H](NC(=O)CSc4cc(Cl)ccc4Cl)[C@H]3SC2)nc1N [Compound I-22, (6R,7R)-2,6-diamino-4-({(E)-3-[2-carboxy-7-({2-[(2,5-dichlorophenyl)sulfanyl]acetyl}amino)-8-oxo-5-thia-1-azabicyclo[4.2.0]oct-2-en-3-yl]-2-propenyl}sulfanyl)-1-methylpyrimidin-1-ium] | 0.25 | 0.063 | <0.008 | 1 | 0.063 | – | – | – | – | –
7 | Nc1cc[n+](N)c(SC/C=C/C2=C(C(=O)O)N3C(=O)[C@@H](NC(=O)CSc4cc(Cl)ccc4Cl)[C@H]3SC2)n1 [Compound I-4, 1,4-diamino-2-({(E)-3-[(6R,7R)-2-carboxy-7-({2-[(2,5-dichlorophenyl)sulfanyl]acetyl}amino)-8-oxo-5-thia-1-azabicyclo[4.2.0]oct-2-en-3-yl]-2-propenyl}sulfanyl) pyrimidin-1-ium] | 0.5 | 0.13 | <0.008 | 1 | 0.13 | – | – | – | – | –
8 | Nc1cc[n+](N)c(SCC2=C(C(=O)O)N3C(=O)[C@@H](NC(=O)CSc4cc(Cl)ccc4Cl)[C@H]3SC2)n1 [Compound I-6, 1,4-diamino-2-({[(6R,7R)-2-carboxy-7-({2-[(2,5-dichlorophenyl)sulfanyl]acetyl}amino)-8-oxo-5-thia-1-azabicyclo[4.2.0]oct-2-en-3-yl]methyl}sulfanyl)pyrimidin-1-ium] | 4 | 0.063 | <0.008 | 4 | 0.031 | – | – | – | – | –
9 | Cc1c(N)nc(SC/C=C/C2=C(C(=O)O)N3C(=O)[C@@H](NC(=O)CSc4cc(Cl)ccc4Cl)[C@H]3SC2)nc1N [Compound I-26, (6R,7R)-3-{(E)-3-[(4,6-diamino-5-methyl-2-pyrimidinyl)sulfanyl]-1-propenyl}-7-({2-[(2,5-dichlorophenyl)sulfanyl]acetyl}amino)-8-oxo-5-thia-1-azabicyclo[4.2.0]oct-2-ene-2-carboxylic acid] | – | – | – | – | – | 2 (≈ 3.26 µM) | 2 (≈ 3.26 µM) | 0.13 (≈ 0.212 µM) | 16 (≈ 26.1 µM) | 1 (≈ 1.63 µM)
10 | Nc1ncnc(SC/C=C/C2=C(C(=O)O)N3C(=O)[C@@H](NC(=O)CSc4cc(Cl)ccc4Cl)[C@H]3SC2)c1N [Compound I-25, (6R,7R)-3-{(E)-3-[(5,6-diamino-4-pyrimidinyl)sulfanyl]-1-propenyl}-7-({2-[(2,5-dichlorophenyl)sulfanyl]acetyl}amino)-8-oxo-5-thia-1-azabicyclo[4.2.0]oct-2-ene-2-carboxylic acid] | – | – | – | – | – | 2 (≈ 3.34 µM) | 1 (≈ 1.67 µM) | 0.063 (≈ 0.105 µM) | 16 (≈ 26.7 µM) | 0.5 (≈ 0.834 µM)
11 | Nc1cc(SC/C=C/C2=C(C(=O)O)N3C(=O)[C@@H](NC(=O)CSc4cc(Cl)ccc4Cl)[C@H]3SC2)nc(N)n1 [Compound I-3, (6R,7R)-3-{(E)-3-[(2,6-diamino-4-pyrimidinyl)sulfanyl]-1-propenyl}-7-({2-[(2,5-dichlorophenyl)sulfanyl]acetyl}amino)-8-oxo-5-thia-1-azabicyclo[4.2.0]oct-2-ene-2-carboxylic acid] | – | – | – | – | – | 0.5 (≈ 0.834 µM) | 0.13 (≈ 0.217 µM) | < 0.008 | 4 (≈ 6.67 µM) | 0.13 (≈ 0.217 µM)
12 | CC[n+]1c(N)cc(N)nc1SC/C=C/C1=C(C(=O)O)N2C(=O)[C@@H](NC(=O)CSc3cc(Cl)ccc3Cl)[C@H]2SC1 [Compound I-29, (6R,7R)-4,6-diamino-2-({(E)-3-[2-carboxy-7-({2-[(2,5-dichlorophenyl)sulfanyl]acetyl}amino)-8-oxo-5-thia-1-azabicyclo[4.2.0]oct-2-en-3-yl]-2-propenyl}sulfanyl)-1-ethylpyrimidin-1-ium] | 0.13 | 0.031 | <0.008 | 1 | 0.063 | – | – | – | – | –
13 | Nc1cc[n+](C/C=C/C2=C(C(=O)O)N3C(=O)[C@@H](NC(=O)CSc4cc(Cl)ccc4Cl)[C@H]3SC2)cn1 [Compound I-2, 4-amino-1-{(E)-3-[(6R,7R)-2-carboxy-7-({2-[(2,5-dichlorophenyl)sulfanyl]acetyl}amino)-8-oxo-5-thia-1-azabicyclo[4.2.0]oct-2-en-3-yl]-2-propenyl}pyrimidin-1-ium] | 1 | 0.25 | <0.008 | 4 | 0.25 | – | – | – | – | –
